This note sets out measurements from patent US20220228124A1, “Three-Dimensional Cross-Linked Scaffolds Of Peripheral Blood Plasma And Their Use” (SANFORD HEALTH, priority 2019, published 2022).

Assay [1] concerns EpCAM+ BCa cells from patient biopsies. The experiment in a line: Survival of primary patient BCa cells in matched-plasma 3DeTME cultures. The settings on record: 7 days. Type of assay: cell-based, human. Here is the method:
Methods: To evaluate the association between different variables, correlation tests were performed using the ggpubr R™ package. The Pearson correlation (r) was assessed in order to measure the linear dependence between two variables after confirmation of a normal distribution of the data. In order to assess the predictive value of the drug response metrics obtained in the 3DeTME assays with cell lines, we compared them with metric data obtained from literature relevant for 2D models (IC50) and other 3D models (IC50), as well as effective concentrations in patients from phase I or II studies that examined the pharmacokinetics of the tested chemotherapies (steady state concentration, Css). A scatterplot correlation graph allowed us to establish the strength, direction and form of the relationship between the in vitro models and the Css clinical data, with Pearson correlation coefficients (r) that were calculated to measure the strength of those relationships. […] Small organoids and single cells cultures were grown and analyzed at days 0.5 (γ0), 3, and 7. […] BCa cell counts were acquired and data was analyzed using FlowJo™ v10 (Ashland, Oreg.). Data was normalized to a predetermined number of counting beads, the proliferation of each condition (fold of γ0) and survival (% of control) was calculated and compared.

The subject of assay [2] is fibrinogen found naturally in plasma. The experiment in a line: Cross-linking time of plasma into 3DeTME matrix. The assay is classed as biochemical, human. On the procedure:
(§1) Methods: 3DeTME cultures are formed through the cross-linking of fibrinogen found naturally in plasma. Cross-linking time was assessed by measuring the time necessary to achieve matrix cross-linking using three relevant cross-linkers of the blood coagulation process including Thrombin (0-5 mg/ml), CaCl2 (0-5 mg/ml), and Factor XIII (0-6 mg/ml). The stabilization effects of preventing fibrin degradation and stability improvement in the scaffold was assessed by surveying several chemical antifibrinolytic agents including tranexamic acid (AMCHA) (0-10 mg/ml), Aprotinin ([…]), epsilon-aminocaproic acid (EACA) (0-2.5 mg/ml), and 4-aminomethylbenzoic acid (PAMBA) (0-2.5 mg/ml). The stability of the scaffold was studied by measuring each scaffold weight at day 0 and again measuring scaffold weight at the conclusion of a 3 week time period. 3DeTME culture scaffold structure and morphology was analyzed with scanning electron microscopy (SEM) using a FEI Quanta™ 450 Scanning Electron Microscope at multiple magnifications. The stiffness of the scaffolds was measured by atomic force microscopy (AFM). The Young's modulus was estimated by fitting a modified Hertz model onto the AFM indentation curve using the built in function of AFM software (Asylum Research). Plasma from cancer patients and healthy subjects was analyzed for fibrinogen content through the clotting method of Clauss. The Clauss fibrinogen assay is a quantitative, clot-based, functional assay. The assay measures the ability of fibrinogen to form fibrin clot after being exposed to a high concentration of purified thrombin. Briefly, plasma samples were loaded into the STA-R™ Evolution Expert Series Hemostasis System (Diagnostica Stago Inc., Parsippany, N.J.) and automated testing was carried out by the analyzer. […] 3DeTME culture supernatants were collected and analyzed by a C-Series Custom Cytokine Antibody Array (RayBiotech Inc., Norcross, Ga.) according to the instructions provided by the manufacturer. […] The chemiluminescence signal intensity of each spot was quantified by densitometric analysis (VisionWorks Software). […]

Assay [3] deals with three breast cancer (BCa) cell lines. The experiment in a line: 3DeTME drug screening, relative cell count and GR values. The assay is classed as cell-based, human. The note with it: day 7; for response among the BCa cell lines: 3DeTME, 0.1 nM-300 μM. On the procedure:
(§2) Methods: Three breast cancer (BCa) cell lines were previously labeled with DiD and incorporated in 3DeTME. Half a day after plating, cells were treated with a DMSO control (γCtrl) and increasing concentrations 0.1 nM-300 μM of seven standard-of-care chemotherapeutic drugs including Methotrexate (MTX), Paclitaxel (PTX), Capecitabine (CAP), Cyclophosphamide Monohydrate (CYCLO), Carboplatin (CARBO), Epirubicin Hydrochloride (EPI), and Docetaxel (DTX). Treatments were added on top of 3DeTME in order to simulate drug diffusion into a tumor. Treatments were refreshed at day 4 and BCa cells were retrieved from the different cultures for analysis at day 0.5 (γ0) and day 7. Samples were prepared in PBS for flow cytometry by adding counting beads (424902, Biolegend, CA) in addition to SytoxTM green dead cell stain (excitation 504 nm, emission 523 nm) ([…], Thermo Fisher Scientific, MA) for viability to each sample. BCa cells were identified by gating live cells with a DiD+ signal using the FL4 channel on BD AccuriTM C6 instrument (CFlow Software) (BD Biosciences). A minimum of 5×103 events was acquired per sample and BCa cell counts were acquired and data was analyzed using the FlowJoTM v10 (Ashland, Oreg.) software. Relative cell count and Growth rate (GR) values. The GR values show the partial inhibition effect of the drug when it achieves GR values from 0 to 1, with the cytostatic effect being represented when the value is equal to 0 and the cytotoxic effect being represented when it lies between 0 and -1.

The next assay has as its system MDA-MB-231. Described as above. The settings on record: 0.1 nM-300 μM, day 7. The assay is classed as cell-based, human. On the procedure:
as §2

Assay [4] has as its system fibrin degradation in the scaffold. The experiment in a line: 3DeTME scaffold integrity and stability (weight) with antifibrinolytic agents. Details: species or system human. Here is the method:
as §1

A further assay concerns MCF7. The experiment in a line: 3DeTME drug screening, relative cell count and GR values. The note with it: 0.1 nM-300 μM, day 7. The assay is classed as cell-based, human.
The subject of assay [5] is CD8+ T cell infiltration (PD-L1 blockade). As to the kind of experiment: CD8+ T cell infiltration into 3DeTME matrices seeded with BCa cells. The assay is classed as cell-based, human. The settings on record: 3DeTME tumorous (1.5% O2); 5 μM for the first 4 days; read at day 7. On the procedure:
Methods: 3DeTME cultures were grown with cancer cells for 4 days, while being exposed to variable O2 environments (21% and 1.5% O2). Peripheral blood mononuclear cells (PBMCs) were incorporated at day 4 as a cell suspension in the medium added on the top of the matrix, while being exposed to the same O2 environment up to day 7, (FIG. 5A). Oxygen partial pressure (pO2) levels were measured in BCa cell-seeded 3DeTME matrices incubated under variable O2 environments (21% and 1.5% O2) after 0, 2, 4 and 7 days of culture. 3DeTME scaffolds containing BCa cells were profiled along the z-direction with an oxygen microsensor (Needle-Type Oxygen Microsensor NTH-PSt7, PreSens, Regensburg, Germany) and a manual micromanipulator (FIG. 5B). Briefly, to record oxygen pressure, the sensor was introduced into the geometric center (3 measure points) of the 3DeTME and moved from the border between the media and 3DeTME (top) in 10 μm steps towards the bottom of the well plate, as illustrated in FIG. 5C. […]
Methods: Differences in lymphocyte infiltration into 3DeTME scaffolds as a result of different oxygen content were assessed. PBMCs were incorporated as cell suspension in the medium added on the top of the matrix at day 4 and analyzed at day 7. […] Mean absolute numbers of CD3+, CD4+, CD8+ and CD19+ cells (normalized to beads) were determined in each experimental group. […]

The mark [6] stands for this setting: 5 and 10 mg/ml, weight at day 24 vs day 0.

Procedure for MCF7: Methods: Three breast cancer (BCa) cell lines were previously labeled with DiD and incorporated in 3DeTME. Half a day after plating, cells were treated with a DMSO control (γCtrl) and increasing concentrations 0.1 nM-300 μM of seven standard-of-care chemotherapeutic drugs including Methotrexate (MTX), Paclitaxel (PTX), Capecitabine (CAP), Cyclophosphamide Monohydrate (CYCLO), Carboplatin (CARBO), Epirubicin Hydrochloride (EPI), and Docetaxel (DTX). Treatments were added on top of 3DeTME in order to simulate drug diffusion into a tumor. Treatments were refreshed at day 4 and BCa cells were retrieved from the different cultures for analysis at day 0.5 (γ0) and day 7. Samples were prepared in PBS for flow cytometry by adding counting beads (424902, Biolegend, CA) in addition to SytoxTM green dead cell stain (excitation 504 nm, emission 523 nm) ([MUT], Thermo Fisher Scientific, MA) for viability to each sample. BCa cells were identified by gating live cells with a DiD+ signal using the FL4 channel on BD AccuriTM C6 instrument (CFlow Software) (BD Biosciences). A minimum of 5×103 events was acquired per sample and BCa cell counts were acquired and data was analyzed using the FlowJoTM v10 (Ashland, Oreg.) software. Relative cell count and Growth rate (GR) values. […]

As to `CC(C)(C#N)c1cc(Cn2cncn2)cc(C(C)(C)C#N)c1` [Arimidex], the activity at 45 µM in assay [1] (Homo sapiens, 168 h, "responder" patient, read-out: survival of BCa cells (% of control)) is 17%. Besides, in assay [1] (patient with "resistance" clinical outcome, 45 μM), the “survival of BCa cells” value is given as “little to no effect”.

On to `[Ca+2].[Cl-].[Cl-]` [CaCl2, calcium chloride], for which the “cross-linking time (fastest)” value in assay [2] (cross-linker at 1 mg/ml) came to 4 min.

For the compound `CCCCCOC(=O)Nc1nc(=O)n([C@@H]2O[C@H](C)[C@@H](O)[C@H]2O)cc1F` [capecitabine, Capecitabine], in assay [3] (over the concentrations tested), the “type of drug effect (GR value)” value was “cytostatic”.

Regarding `N.N.O=C([O-])C1(C(=O)[O-])CCC1.[Pt+2]` [carboplatin, Carboplatin], in the assay with MDA-MB-231, the “sensitivity of the cell line relative to the other BCa cell lines” value is “most sensitive”. The “response among the BCa cell lines” value in assay [3] is “heterogeneous response”.

Consider `NCCCCCC(=O)O` [epsilon-aminocaproic acid], for which the integrity benefit entry in assay [4] (at the concentrations tested (0-2.5 mg/ml), day 24 vs day 0) is reported as “not able to sustain an integrity benefit”.

As for `CN(Cc1cnc2nc(N)nc(N)c2n1)c1ccc(C(=O)N[C@@H](CCC(=O)O)C(=O)O)cc1` [methotrexate, Methotrexate], the “response among the BCa cell lines” value in assay [3] is on record as “heterogeneous response”. Moreover, in the assay on MCF7, the “sensitivity of the cell line relative to the other BCa cell lines” value is reported as “most resistant”.

In the case of `NC[C@H]1CC[C@H](C(=O)O)CC1` [tranexamic acid, trans-4-(aminomethyl)cyclohexanecarboxylic acid], in assay [4] (setting [6]), the “weight gain as share of total weight” value is reported as “around 10%” and the “weight gain of 3D culture” value was “about 24 mg”.

Turning to “Durvalumab: selective, high-affinity human IgG1 mAb that blocks programmed cell death ligand-1 (PD-L1) binding to PD-1”, the CD8 infiltration entry in assay [5] is reported as “did reverse CD8 infiltration”.

“Factor XIII: cross-linker of the blood coagulation process, required activation by calcium”: the “cross-linking time (fastest)” value in assay [2] (cross-linker at 6 mg/ml, activated by incorporating calcium) is on record as “over 40 min”.

Consider thrombin, for which the cross-linking time in assay [2] (cross-linker at 5 mg/ml) was 5 min.
